How the values were obtained:
Assay in all cases: viability relative to DMSO control (fraction); higher = less drug effect (more viable cells)
[1] = system: primary BL patient cells (S005); conditions: 48 h
In short: (§1)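 The cells were primary mononuclear tumour cells, either fresh or cryopreserved, isolated by Ficoll from blood or bone marrow or derived from processed lymph node. Each well of a 384-well plate received 4 × 10^4 cells onto compounds pre-plated at five concentrations, with one well per concentration. The medium was RPMI-1640 with penicillin/streptomycin, L-glutamine and human serum, and plates stood at 37 °C and 5% CO2 for 48 h. Viability is reported as CellTiter-Glo luminescence relative to the median of 16 inner DMSO wells.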

[2] = system: primary AML patient cells (S081); conditions: 1 µM; 48 h
In short: as §1

[3] = system: primary MCL patient cells (S041); conditions: 48 h
In short: as §1

[4] = system: primary FL patient cells (S022); conditions: 48 h
In short: as §1

[5] = system: primary AML patient cells (S007); conditions: 1 µM; 48 h
In short: as §1

[6] = system: primary AML patient cells (S009); conditions: 0.0016 µM; 48 h
In short: as §1

[7] = system: primary AML patient cells (S017); conditions: 0.04 µM; 48 h
In short: as §1

[8] = system: primary B-PLL patient cells (S016); conditions: 48 h
In short: as §1

[9] = system: primary AML patient cells (S072); conditions: 48 h
In short: as §1

[10] = system: primary ALL patient cells (S048); conditions: 0.008 µM; 48 h
In short: as §1

[11] = system: primary AML patient cells (S019); conditions: 1 µM; 48 h
In short: as §1

[12] = system: primary AML patient cells (S002); conditions: 0.04 µM; 48 h
In short: as §1

[13] = system: primary AML patient cells (S079); conditions: 48 h
In short: as §1

[14] = system: primary AML patient cells (S055); conditions: 0.008 µM; 48 h
In short: as §1

[15] = system: primary AML patient cells (S071); conditions: 1 µM; 48 h
In short: as §1

[16] = system: primary AML patient cells (S037); conditions: 48 h
In short: as §1

[17] = system: primary T-NHL patient cells (S058); conditions: 0.0016 µM; 48 h
In short: as §1

[18] = system: primary MCL patient cells (S068); conditions: 48 h
In short: as §1

[19] = system: primary AML patient cells (S089); conditions: 48 h
In short: as §1

[20] = system: primary AML patient cells (S011); conditions: 0.2 µM; 48 h
In short: as §1

[21] = system: primary AML patient cells (S006); conditions: 0.04 µM; 48 h
In short: as §1

[22] = system: primary AML patient cells (S021); conditions: 48 h
In short: as §1

[23] = system: primary DLBCL patient cells (S049); conditions: 48 h
In short: as §1

[24] = system: primary MCL patient cells (S063); conditions: 48 h
In short: as §1

[25] = system: primary AML patient cells (S044); conditions: 1 µM; 48 h
In short: as §1

[26] = system: primary DLBCL patient cells (S082); conditions: 48 h
In short: as §1

[27] = system: primary AML patient cells (S056); conditions: 0.008 µM; 48 h
In short: as §1

[28] = system: primary MCL patient cells (S053); conditions: 48 h
In short: as §1

[29] = system: primary AML patient cells (S012); conditions: 48 h
In short: as §1

[30] = system: primary DLBCL patient cells (S076); conditions: 0.2 µM; 48 h
In short: as §1

## C=CC(=O)N1CCC[C@@H](n2nc(-c3ccc(Oc4ccccc4)cc3)c3c(N)ncnc32)C1 [Ibrutinib]
[1]; 0.0016 µM
  viability: 1.1
[1]; 0.008 µM
  viability: 0.982
[1]; 0.2 µM
  viability: 0.978
[2]
  viability: 1.14
[3]; 0.0016 µM
  viability: 0.874
[3]; 0.008 µM
  viability: 0.802
[4]; 0.2 µM
  viability: 0.978
[4]; 1 µM
  viability: 0.978
[5]
  viability: 0.338
[6]
  viability: 0.965
[7]
  viability: 1.1
[8]; 0.0016 µM
  viability: 0.576
[8]; 0.008 µM
  viability: 0.507
[8]; 0.04 µM
  viability: 0.517
[8]; 0.2 µM
  viability: 0.508
[8]; 1 µM
  viability: 0.547
[9]; 0.0016 µM
  viability: 1.2
[9]; 0.04 µM
  viability: 0.913
[10]
  viability: 1.12
[11]
  viability: 1
[12]
  viability: 1.18
[13]; 0.04 µM
  viability: 0.879
[13]; 0.2 µM
  viability: 0.862
[13]; 1 µM
  viability: 1.25
[14]
  viability: 0.949
[15]
  viability: 0.673
[16]; 0.0016 µM
  viability: 1.4
[16]; 0.04 µM
  viability: 1.5
[16]; 1 µM
  viability: 1.75
[17]
  viability: 1.12
[18]; 0.0016 µM
  viability: 0.77
[18]; 0.008 µM
  viability: 0.697
[18]; 0.2 µM
  viability: 0.687
[18]; 1 µM
  viability: 0.783
[19]; 0.008 µM
  viability: 0.988
[19]; 0.04 µM
  viability: 1
[19]; 0.2 µM
  viability: 0.615
[19]; 1 µM
  viability: 0.6
[20]
  viability: 0.972
[21]
  viability: 0.988
[22]; 0.04 µM
  viability: 1
[22]; 1 µM
  viability: 0.913
[23]; 0.0016 µM
  viability: 0.848
[23]; 0.04 µM
  viability: 0.729
[23]; 0.2 µM
  viability: 0.687
[23]; 1 µM
  viability: 0.686
[24]; 0.0016 µM
  viability: 0.475
[24]; 0.008 µM
  viability: 0.292
[24]; 0.04 µM
  viability: 0.253
[24]; 0.2 µM
  viability: 0.255
[24]; 1 µM
  viability: 0.262
[25]
  viability: 0.777
[26]; 0.0016 µM
  viability: 0.711
[26]; 0.008 µM
  viability: 0.583
[26]; 0.04 µM
  viability: 0.465
[26]; 0.2 µM
  viability: 0.458
[26]; 1 µM
  viability: 0.477
[27]
  viability: 1.1
[28]; 0.0016 µM
  viability: 0.591
[28]; 0.008 µM
  viability: 0.57
[28]; 0.04 µM
  viability: 0.595
[28]; 0.2 µM
  viability: 0.588
[28]; 1 µM
  viability: 0.601
[29]; 0.0016 µM
  viability: 1.1
[29]; 0.008 µM
  viability: 1.09
[30]
  viability: 0.89

Source: the supplement of paper PMC10733146
